Results on six compounds are retold here after patent publication US20200232961A1, “CHARACTERIZATION AND APPLICATION OF POLYMERS FOR IN VIVO RELEVANT DRUG ABSORPTION CHARACTERIZATION IN VITRO” (priority 2017, published 2020).

Each structure is given as a SMILES string. ≈ marks a conversion by molar mass, not a printed value. Structures can show the parent of a compound that is named as a salt. Where two headings read alike, the source gives them in different places.

Series [1] in a line: Rotating membrane diffusion cell experiments (permeation through PDMS membrane). The following applies: for LAG TIME (PRED.): predicted from Crank's method (Equation 16); for LAG TIME (EXP.): time to steady state transport across the membrane, linear regression of concentration versus time.
A short description of series [2]: Partition coefficient measurements in PDMS membranes. The format is physicochemical. The following applies: intrinsic non-ionized partition coefficient, N = 5. As for the experimental part:
For each drug, five membranes were prepared. Each membrane was prepared with 10 parts base to 1 part curing agent and cured at 20° C. for at least 72 hours. Once cured, the membranes were sectioned using a template and razor blade. The dimensions of the perimeter and thickness were measured using a caliper to determine the volume of membrane. After determining membrane density, subsequent volume measurements were made using the density relationship. Stock solution was distributed to 5 sample vials with 1 membrane-free vial to serve as a control. The time zero point was measured from the blank vial and time points and 1 mL samples were taken at 12 and 24 hours. The collected samples were assayed in duplicate by HPLC. Bulk transport properties of PDMS were measured to evaluate PDMS fitness for the mimicking human oral absorption. The partition coefficient was calculated according to Equation 4. K=Partition coefficient Cmem*=Equilibrium concentration of drug in membrane Caq*=Equilibrium concentration of drug in the aqueous media

For series [3] the following is noted: not told.
Another series in a line: physchem. The following applies: pH 2, aqueous buffer, thermodynamic from solid. As for the experimental part: Five 1.5 mL centrifuge tubes were labeled and prepared with 1 mL of the appropriate non-ionizing buffer (see Table 5). Solid drug in powder form was added to each individual vial and then vortexed. The addition of drug and vortex mixing was repeated until there was visible undissolved drug powder present. The centrifuge tubes were then put into a hot box where they remained at an aqueous temperature of 37° C. (set point 43° C.). The internal temperature was determined by measuring the temperature of a “blank” tube in the rack. Once the internal temperature reached 37° C., the tubes were held at 37° C. for 48 hours. The tubes were removed from the hot box and centrifuged at 17,000G for 3 hours. The tubes cooled below 37° C. during the centrifugation so the tubes were re-inserted into the hot box and allowed to reach 37° C. over the course of 1 hour. Supernatant was then extracted directly from the tube in the hot box without disturbing the pellet. The supernatant was appropriately diluted for HPLC analysis.
In each permeation experiment, the donor-phase-containing drug was at a non-ionizing pH if the drug was ionizable and the receiver phase was at a completely ionizing (>99%) pH. […] Progesterone solubility was determined twice, the second time as an analytical check.

The nature of series [4]: UTLAM diffusion cell dissolution/absorption experiment. The series is classed as in vitro ADME. The conditions noted are these: 57 micron PDMS UTLAM, donor 50 mM phosphate pH 6.5, receiver pH 8.0, 37° C., 50 rpm, 162 mg dose. How it is done:
According to the SEM freeze-fracture-determined thickness based on the terminal rotational speed and mass fraction of PDMS, the membranes tested in the following experiments were 57 microns thick. 130 mL of 50 mM phosphate buffer pH 6.5 was degas sed and used as the donor phase, while 100 mL of 50 mM phosphate buffer pH 8.0 was degas sed and used as the receiver phase. The rationale behind this is that PDMS has poor ability to transport ions (a […] pH-partition relationship) and the more ionized the drug is, the less driving force the drug will provide for reverse transport out of the receiver phase. […] Ultimately, this leads to a […] transport rate of ibuprofen returning to the donor compartment. […] It is understood that the measured absorption rate is […] due the additional partitioning kinetics introduced by the resin that forms the UTLAM device. […] Physiologically, it is understood that the bicarbonate buffer bulk pH and buffer capacity are lower in the duodenum and jejunum than that of the USP 2 dissolution test. […]
The PDMS UTLAM is floated in deionized water and in about two hours the PVA is dissolved enough to tease the PDMS UTLAM to the surface of the water. […] Equivalent stirring rates could be calculated for the USP 2 paddle using CFD measurements made in COMSOL. […]

Series [5] is described as follows: Mass increase of PDMS membranes after equilibrium partitioning with ibuprofen. The format is physicochemical. How it is done:
Ibuprofen was chosen as a model drug because of its high lipophilicity and the ability to measure the difference in mass of drug in the membrane before and after the partitioning experiment. There was no statistical difference in the positronium lifetimes, but there was a 1.76 mg±0.12 mg (n=7) mass increase in 25% by mass curing agent PDMS membranes, and a 2.90 mg±0.38 mg (n=6) mass increase in […] by mass curing agent PDMS membranes.

A short description of series [6]: Equilibrium partition coefficient of ibuprofen into VeroClear resin spheres. The format is physicochemical. The conditions noted are these: pH 2 in VeroClear, 10 mm diameter spheres.
Series [7] is classed as physicochemical. How it is done:
This experiment was conducted in a manner similar to the experiment described in “Partition Coefficient Measurements”, above. […] Four different mass % of curing agents (4.9%, 9.1%, 16%, and 25%) were examined at two different pH conditions (2.00 HCl 13 mM & 6.50 phosphate 50 mM). The Log DPDMS was measured as a function of pH at pH 2.00, 5.00, 6.45, and 12.00 using 13 mM HCl, 50 mM acetate, 50 mM phosphate, and 39 mM NaOH buffers, respectively, at RT (FIG. 5C).

The conditions of series [8]: literature values (refs 6, 41); cited from earlier work.
[9] abbreviates: average PDMS KD divided by 10^LogK for PDMS.

In the case of `O=C(O)c1ccccc1` [BENZOIC ACID, Benzoic Acid], in [1], the “LAG TIME (PRED.)” value is 238 min and the “LAG TIME (EXP.)” value stood at 25 min. In [2], the “PDMS LOGK” value worked out at 0.10.
Take `Cn1c(=O)c2c(ncn2C)n(C)c1=O` [CAFFEINE, Caffeine]: the “PARTITION I[…]. COEFF (K*D)/10^LOGK^PDMS” value in series [1] (setting [9]) is 1.70 × 10^−8 CM^2 S^−1. In series [3], the “AVG. PDMS (K*D)” value is on record as 6.02 × 10^−10 CM^2 S^−1 and the “LAG TIME (PRED.)” value is 571 min.
The thermodynamic solubility is the concentration in solution at equilibrium with solid. For `CC(C)Cc1ccc(C(C)C(=O)O)cc1` (stereo not drawn) [IBUPROFEN, Ibuprofen], the thermodynamic solubility at 48 h in “physchem” (NON-IONIZED SOLUBILITY) came to 60 mg/mL (≈ 291 mM). In addition, in [4], the “absorption rate (net flux)” value is “within the same order of magnitude of ibuprofen absorption in human beings”. Further, the “mass increase of PDMS membrane after equilibrium partitioning” value in series [5] (3.2% by mass curing agent PDMS membranes, n=6) is reported as 2.90 mg. Moreover, the “mass increase of PDMS membrane after equilibrium partitioning” value in [5] (25% by mass curing agent PDMS membranes, n=7) was determined as 1.76 mg. The “K (equilibrium partition coefficient) in VeroClear” value in series [6] stood at 86. In addition, the “PARTITION INDEPENDENT DIFF. COEFF (K*D)/10^LOGK^PDMS” value in [1] (setting [9]) was 2.99 × 10^−7 CM^2 S^−1. Also, the “MEASURED PDMS LOGPU ± SE” value in [7] is given as 1.81. In addition, the “PI EQ. 6” value in [7] (calculated to fit equation 6 using data at pH 11.81 and fu~0) is 0.008. The “MEASURED PDMS PU ± SE” value in series [7] (intrinsic non-ionized partition coefficient, N = 15) came to 65. In addition, the “K (partition coefficient) in PDMS” value in [7] (pH 2) amounted to 65. Moreover, in [7] (pH 11.81), the “MEASURED PDMS LOGPI ± SE” value is listed as −0.286. For the same compound, the “PDMS LOGK” value in series [2] is recorded as 1.79. For the same compound, in [3], the “AVG. PDMS (K*D)” value is given as 1.83 × 10^−5 CM^2 S^−1 and the “LAG TIME (PRED.)” value came out at 158 min.
For orientation: pKa means the pH at which an ionisable group is half protonated. In the case of `CC(C(=O)O)c1cccc(C(=O)c2ccccc2)c1` (stereo not drawn) [KETOPROFEN, Ketoprofen], the pKa in series [8] is listed as 3.89. Moreover, in series [1] (setting [9]), the “PARTITION INDEPENDENT DIFF. COEFF (K*D)/10^LOGK^PDMS” value is 2.58 × 10^−8 CM^2 S^−1. In series [1] (non-ionized drug, donor/receiver buffer I/III as printed, 37° C., 150 rpm), the “AVG. PDMS (K*D)” value was 9.46 × 10^−8 CM^2 S^−1. For the same compound, in series [1], the “LAG TIME (PRED.)” value was 482 min and the “LAG TIME (EXP.)” value came to 232 min. Also, the “PDMS LOGK” value in series [2] is reported as 0.56.
Take `COCCc1ccc(OCC(O)CNC(C)C)cc1` (stereo not drawn) [METOPROLOL TARTRATE, Metoprolol Tartrate]: in [2], the “PDMS LOGK” value was 0.68.
In turn, `CC(=O)[C@H]1CC[C@H]2[C@@H]3CCC4=CC(=O)CC[C@]4(C)[C@H]3CC[C@]12C` [PROGESTERONE, Progesterone] yielded a solubility (thermodynamic) at 48 h in the series “physchem” (13 mM hydrochloric acid buffer, NON-IONIZED SOLUBILITY (ANALY. COMP.), second determination as analytical check with different dilution, pH 2.00 13 mM hydrochloric acid buffer at 37° C.) of 20.9 mg/mL (≈ 66.5 mM). Besides, in the series “physchem” (13 mM hydrochloric acid buffer, NON-IONIZED SOLUBILITY, I = pH 2.00 13 mM hydrochloric acid buffer at 37° C.), the solubility (thermodynamic) at 48 h came out at 21.3 mg/mL (≈ 67.7 mM). Moreover, the “PARTITION INDEPENDENT DIFF. COEFF (K*D)/10^LOGK^PDMS” value in series [1] (setting [9]) is 1.07 × 10^−7 CM^2 S^−1. In addition, the “PDMS LOGK” value in series [2] is on record as 2.03. In addition, in series [3], the “AVG. PDMS (K*D)” value is given as 1.14 × 10^−5 CM^2 S^−1 and the “LAG TIME (PRED.)” value came out at 158 min.
